Results as given in patent US20260315609A1, “MIXED VASOPRESSIN RECEPTOR AGONIST-ANTAGONIST FOR TREATING END-STAGE LIVER DISEASE AND COMPLICATIONS ASSOCIATED THEREOF” (FERRING B.V., priority 2022, published 2026).
Starred links: 1 amine or outer side, 2 acyl side, 3 side chain; linkers in the order of their positions; H or OH if unused. Positions of bridges follow the written chain, without caps; N, C: chain ends. Non-standard residues stand in square brackets, D forms with d. Residues, ends and D or L forms follow the SMILES beside them. Chains are numbered I, II in the order given. *: point of attachment. isoGln = NC(=O)[C@H](CCC(=O)[*:2])N[*:1]; εLys = N[C@@H](CCCCN[*:1])C(=O)[*:2]; Dab = NCC[C@H](N)C(=O)O; PhAc = O=C(Cc1ccccc1)*

Tests used:
[1] = test system: CCl4-induced rat model of cirrhosis and ascites; assay: CCl4-induced cirrhosis and ascites rats, cohort 2 (single IV bolus), renal excretory function; type: in vivo; conditions: 100 μg/kg IV
Protocol: (§1) Animals: 90 male Wistar rats (Charles River Laboratories, Espana S.A) weighing 200-220 grams at the time of receipt were subjected to a cirrhosis induction program; high dose CCl4 was administered by inhalation twice weekly (Monday and Friday) and phenobarbital (0.3 g/L) was added to drinking water. In some instances, liver damage in this model is caused by hepatotoxic CCl4 metabolites produced in the liver. In some instances, phenobarbital induction of the microsomal enzyme oxidizing system exaggerates the intensity of the hepatic necrosis. The data was collected from the treatment of 44 cirrhotic rats with ascites. Animals were allowed free access to food and water throughout the study.
(§2) The study consisted of 3 treatment cohorts, as detailed in Table 10. Animals developing and maintaining ascites for 2 weeks were randomly assigned to treatment groups. Ringer Braun saline solution was used as vehicle. IV bolus were administered via femoral veins.
Cohort 2: Animals were anesthetized and the left femoral artery and vein catheterized. Bladders were exposed by suprapubic incision and catheterized for urine collection. A priming dose of PAH (4 mg/animal) was administered via the jugular vein followed by a constant infusion (2 mL/hr) of Ringer solution containing 4 mg/mL PAH. After 30 minutes of infusion, a baseline 30 minute urine collection was obtained for urine volume, urine sodium content, urine creatinine content, and PAH measurements. In the middle of the 30 minute urine collection, a blood sample (0.8 mL) was obtained via the femoral artery catheter for PAH and creatinine measurements. […] Five 30 minute urine collections were performed over 150 minutes, with blood samples collected in the middle of each 30 minute urine collection. Following blood sampling, packed cells were reconstituted with Ringer solution and reinjected over a period of 3 minutes.

[2] = test system: methionine/choline-deficient (MCD) diet rats; assay: MAP / ΔMAP in methionine/choline-deficient (MCD) diet rats; type: in vivo, rat; conditions: for Δ MAP (mean): SC, MCD diet rats
Protocol: The terlipressin dose was 100 μg/kg.
Data were evaluated as change […] from baseline.

rV1a receptor = biological target: T1, rV1a receptor (Rattus norvegicus, UniProt P30560); assay: FLIPR calcium assay, rat V1a (A7r5 cells); type: cell-based; conditions: A7R5, read-out: % MPE
T1 construct: endogenously expressing rV1a; host or cells: A7r5 rat thoracic aorta smooth muscle cells
Protocol: Cell Lines. Studies were conducted with cell lines expressing rat (r) or human (h) Via, V1b, V2, or OT receptors. For the experiments with human receptors, human embryonic kidney (HEK)-flp-in cells stably expressing the lacZ-Zeocin™ fusion gene were used for expression of hV1a and hV1b. These cells were designed for use with the Flp-In™ expression vector containing the gene of interest (here hV1a or hV1b) and the Flp recombinase expression plasmid, pOG44. For hV2 and hOTR, HEK-293 cells transiently expressing hV2 were used.
Functional Cell-Based Assays.

[3] = test system: CCl4-induced rat model of cirrhosis and ascites; assay: CCl4-induced cirrhosis and ascites rats, cohort 1 (SC bolus b.i.d. 3 days), renal excretory function; type: in vivo
Protocol: as §1, §2
This study was performed at the Hospital Clinic (Barcelona, Spain). Measurements and/or samples were collected for additional experimental parameters (e.g., water intake, urine osmolality, serum samples, tissue samples, etc.) but data are not reported.
Cohort 1: Animals were placed into metabolic cages for continuous urine collection and administered 100 μg/kg FE 204205 or vehicle by SC bolus for 3 days (see Table 3 for details). Measurements of body weight, urine volume, and urine sodium content were taken prior to treatment (Day 0) and daily over the course of treatment administration. After 3 days of treatment, the volume of ascites was measured by aspiration and the animals were sacrificed by isofluorane overdose.

T1 sequence (P30560 whole entry): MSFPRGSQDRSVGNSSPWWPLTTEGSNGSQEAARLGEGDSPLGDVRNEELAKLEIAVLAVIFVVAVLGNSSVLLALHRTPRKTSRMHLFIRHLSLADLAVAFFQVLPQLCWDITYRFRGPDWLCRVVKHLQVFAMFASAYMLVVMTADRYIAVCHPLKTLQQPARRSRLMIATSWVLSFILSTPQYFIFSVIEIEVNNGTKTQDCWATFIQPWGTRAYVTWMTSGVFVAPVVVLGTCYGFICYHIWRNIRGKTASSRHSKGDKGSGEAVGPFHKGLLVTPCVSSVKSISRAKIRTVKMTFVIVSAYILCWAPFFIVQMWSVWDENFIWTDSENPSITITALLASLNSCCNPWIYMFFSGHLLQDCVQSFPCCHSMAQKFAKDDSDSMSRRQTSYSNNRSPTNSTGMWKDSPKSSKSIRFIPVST

SMILES: CC[C@H](C)[C@@H]1NC(=O)[C@H](Cc2ccccc2)NC(=O)[C@@H](N)CSSC[C@@H](C(=O)N2CCC[C@H]2C(=O)N[C@@H](CCNC(=O)[C@@H](N)CCCCNC(=O)[C@H](CCCCNC(C)=O)NC(=O)CC[C@H](NC(=O)[C@H](CCCNC(=N)N)NC(=O)[C@@H]2CCCN2C(=O)[C@H](C)NC(=O)[C@H](CC(N)=O)NC(=O)[C@H](CCC(N)=O)NC(=O)[C@H](Cc2ccccc2)NC(=O)[C@@H](Cc2ccc(OC)cc2)NC(=O)Cc2ccccc2)C(N)=O)C(=O)NCC(N)=O)NC(=O)[C@H](CC(N)=O)NC(=O)[C@H](CCC(N)=O)NC1=O [Compound 1, Glycinamide, L-cysteinyl-L-phenylalanyl-L-isoleucyl-L-glutaminyl-L-asparaginyl-L-cysteinyl-L-prolyl-N4-(phenylacetyl-O-methyl-D-tyrosyl-L-phenylalanyl-L-glutaminyl-L-asparaginyl-L-alanyl-L-prolyl-L-arginyl-L-isoglutamyl-N5-acetyl-L-lysyl-L-ε-lysyl)-L-2,4-diaminobutyryl-, cyclic (1→6)-disulfide] (I: H-CFIQNCP[Dab]G-NH2 / II: PhAc-[dY](Me)FQNAPR[isoGln]K(Ac)[εLys]; disulfide I:1-I:6; amide I:8-II:C)
- Sodium Excretion ([1]; 0 min): 0.4 μEq/min
- Urine Volume ([1]; 0 min): 8.4 µL/min
- Sodium Excretion ([1]; 30 min): 1.1 μEq/min
- Urine Volume ([1]; 30 min): 16.4 µL/min
- Sodium Excretion ([1]; 60 min): 4.1 μEq/min
- Urine Volume ([1]; 60 min): 26.5 µL/min
- Sodium Excretion ([1]; 90 min): 5.3 μEq/min
- Urine Volume ([1]; 90 min): 26.2 µL/min
- Sodium Excretion ([1]; 120 min): 7.0 μEq/min
- Urine Volume ([1]; 120 min): 32.3 µL/min
- Sodium Excretion ([1]; 150 min): 7.2 μEq/min
- Urine Volume ([1]; 150 min): 32.7 µL/min
- Δ MAP (mean) ([2]; 25 μg/kg, 0 min): 0.0 mmHg
- Δ MAP (mean) ([2]; 25 μg/kg, 1 min): 1.1 mmHg
- Δ MAP (mean) ([2]; 25 μg/kg, 2 min): 1.9 mmHg
- Δ MAP (mean) ([2]; 25 μg/kg, 3 min): 2.6 mmHg
- Δ MAP (mean) ([2]; 25 μg/kg, 5 min): 3.5 mmHg
- Δ MAP (mean) ([2]; 25 μg/kg, 7 min): 4.0 mmHg
- Δ MAP (mean) ([2]; 25 μg/kg, 10 min): 4.8 mmHg
- Δ MAP (mean) ([2]; 25 μg/kg, 15 min): 5.3 mmHg
- Δ MAP (mean) ([2]; 25 μg/kg, 20 min): 5.2 mmHg
- Δ MAP (mean) ([2]; 25 μg/kg, 30 min): 4.4 mmHg
- Δ MAP (mean) ([2]; 25 μg/kg, 60 min): 3.0 mmHg
- Δ MAP (mean) ([2]; 25 μg/kg, 90 min): 3.1 mmHg
- Δ MAP (mean) ([2]; 100 μg/kg, 0 min): 0.0 mmHg
- Δ MAP (mean) ([2]; 100 μg/kg, 1 min): 2.0 mmHg
- Δ MAP (mean) ([2]; 100 μg/kg, 2 min): 3.5 mmHg
- Δ MAP (mean) ([2]; 100 μg/kg, 3 min): 4.4 mmHg
- Δ MAP (mean) ([2]; 100 μg/kg, 5 min): 7.0 mmHg
- Δ MAP (mean) ([2]; 100 μg/kg, 7 min): 8.5 mmHg
- Δ MAP (mean) ([2]; 100 μg/kg, 10 min): 9.9 mmHg
- Δ MAP (mean) ([2]; 100 μg/kg, 15 min): 11.0 mmHg
- Δ MAP (mean) ([2]; 100 μg/kg, 20 min): 11.3 mmHg
- Δ MAP (mean) ([2]; 100 μg/kg, 30 min): 10.6 mmHg
- Δ MAP (mean) ([2]; 100 μg/kg, 60 min): 10.9 mmHg
- Δ MAP (mean) ([2]; 100 μg/kg, 90 min): 9.2 mmHg
- Δ MAP (mean) ([2]; 500 μg/kg, 0 min): 0.0 mmHg
- Δ MAP (mean) ([2]; 500 μg/kg, 1 min): 2.2 mmHg
- Δ MAP (mean) ([2]; 500 μg/kg, 2 min): 4.5 mmHg
- Δ MAP (mean) ([2]; 500 μg/kg, 3 min): 6.4 mmHg
- Δ MAP (mean) ([2]; 500 μg/kg, 5 min): 9.1 mmHg
- Δ MAP (mean) ([2]; 500 μg/kg, 7 min): 12.1 mmHg
- Δ MAP (mean) ([2]; 500 μg/kg, 10 min): 14.7 mmHg
- Δ MAP (mean) ([2]; 500 μg/kg, 15 min): 13.6 mmHg
- Δ MAP (mean) ([2]; 500 μg/kg, 20 min): 13.7 mmHg
- Δ MAP (mean) ([2]; 500 μg/kg, 30 min): 11.4 mmHg
- Δ MAP (mean) ([2]; 500 μg/kg, 60 min): 9.1 mmHg
- Δ MAP (mean) ([2]; 500 μg/kg, 90 min): 10.2 mmHg
- highest observed absolute MAP ([2]; SC 25 μg/kg): 79.2±1.4 mmHg
- highest observed absolute MAP ([2]; SC 100 μg/kg): 86.8±2.5 mmHg
- highest observed absolute MAP ([2]; SC 500 μg/kg): 90.4±3.7 mmHg
- maximum ΔMAP ([2]; SC 25 g/kg (so in the source)): 5.3±1.1 mmHg
- Emax (rV1a receptor): 30%
- Ascites Volume ([3]; 100 μg/kg SC b.i.d., after 3 days (vehicle 18.6)): 6.0 mL
- Body Weight ([3]; 100 μg/kg SC b.i.d., basal): 461 grs
- Sodium Excretion ([3]; 100 μg/kg SC b.i.d., basal): 0.6 mEq/day
- Urine Volume ([3]; 100 μg/kg SC b.i.d., basal): 9.7 mL/day
- Body Weight ([3]; 100 μg/kg SC b.i.d., day 1): 402 grs
- Sodium Excretion ([3]; 100 μg/kg SC b.i.d., day 1): 8.2 mEq/day
- Urine Volume ([3]; 100 μg/kg SC b.i.d., day 1): 51.6 mL/day
- Body Weight ([3]; 100 μg/kg SC b.i.d., day 2): 397 grs
- Sodium Excretion ([3]; 100 μg/kg SC b.i.d., day 2): 1.1 mEq/day
- Urine Volume ([3]; 100 μg/kg SC b.i.d., day 2): 21.8 mL/day
- Body Weight ([3]; 100 μg/kg SC b.i.d., day 3): 396 grs
- Sodium Excretion ([3]; 100 μg/kg SC b.i.d., day 3): 0.3 mEq/day
- Urine Volume ([3]; 100 μg/kg SC b.i.d., day 3): 16.6 mL/day
- effect on ascites ([3]; SC, three days): fully evacuated the ascites accumulated in the peritoneal cavity or markedly diminished ascites volume
